The text below walks through data of patent US20110112097A1, “Substituted imidazoline-2,4-diones, process for preparation thereof, medicaments comprising these compounds and use thereof” (SANOFI-AVENTIS, priority 2008, published 2011).

pIC50, pKi: −log10 of the molar value. Structures can show the parent of a compound that is named as a salt. Where two headings read alike, the source gives them in different places. Bounds are passed on as bounds.

One assay addresses T1, hCB2R (Homo sapiens, UniProt P34972).
T1 construct: expressed in transfected cells; host or cells: HEK293
Description: In vitro functional assay with recombinant cells (FLIPR, intracellular Ca2+), CB2. The assay is classed as cell-based. The note with it: recombinant HEK293 cells expressing CB2 and G-protein Galpha16; 20 min preincubation, then reference agonist; Ca2+ change (Fluo-4). The procedure: (§1) In vitro functional assays with recombinant cells:
(§2) Function-testing assays were performed by means of the FLIPR technique (“Fluorometric Imaging Plate Reader”, Molecular Devices Corp.).
(§3) To this end, ligand-induced changes in the intracellular concentration of Ca^2+ in recombinant HEK293 cells, which expressed both a cannabinoid receptor (CB1 or CB2) and G-protein Galpha16, were determined. For the studies, cells were sown into 96-well microtiter plates (60 000 cells/well) and left to grow overnight. The medium was removed and the cells were incubated in buffer which contained the fluorescent dye Fluo-4. After this loading with dye, the cells were washed, test substance was added dissolved in buffer, the mixture was incubated for 20 minutes, a known cannabinoid receptor agonist as a reference agonist was added in buffer and, finally, the changes in the intracellular Ca^2+ concentration were measured in the FLIPR unit.
Results were presented as the percentage change relative to the control (0%: analogous experiment without test substance and without reference agonist, i.e. only with buffer; 100%: analogous experiment without test substance, but with reference agonist in excess), and used to calculate dose/action curves, and IC50 values were determined

In assay [1] the target is T2, hCB1R (Homo sapiens, UniProt P21554). As to the kind of experiment: Binding to the CB1 receptor ([3H]-SR141716A displacement). As for the experimental part:
Binding to the CB1 Receptor:
Test compounds: The compounds (3 μl, 10 mM, 100% DMSO), pipetted into 96-well PP microtiter plates, were diluted with 27 μl of 100% DMSO (dimethyl sulfoxide). Proceeding from this solution, further 3-fold dilution steps were undertaken by transferring 10 μl in each case to a new PP microtiter plate and adding a further 20 μl of 100% DMSO. In each case 6 μl of these solutions were transferred into new 96-well PP microtiter plates and made up with 144 μl of assay buffer. The end concentrations ranged from 10 μM to 0.005 μM.
Negative control: AM 251, dissolved in assay buffer with 1% DMSO, was added to the dilution series in the microtiter plates as a control. The end concentration was 1 μM.
Blank control: assay buffer with 1% DMSO was added to the dilution series of the microtiter plates as a blank control.
Summary of the Assay Parameters:
High control: ^3H binding without addition of the compound Low control: ^3H binding in the presence of 1 μM AM 251
The values were calculated using the corrected raw data.
The values reported were obtained as average values of a double determination. The IC50 values were calculated from the measurements with the program Xlfit, formula 205. Ki values were obtained from the IC50 and Kd values utilizing the Cheng-Prusoff equation:
[formula] • Literature: Cheng, Y.-C., and Prusoff, W. H. (1973) Biochem. Pharmacol 22, 3099-3108

Assay [2] has as its target T2, hCB1R. Description: In vitro functional assay with recombinant cells (FLIPR, intracellular Ca2+), CB1. The assay is classed as cell-based. Further details: expressed in transfected cells; host or cells: HEK293. As for the experimental part:
as §1, §2, §3

The mark [3] stands for this setting: recombinant HEK293 cells expressing CB1 and G-protein Galpha16, 20 min preincubation, then reference agonist, Ca2+ change (Fluo-4), read-out: hCB1R: FLIPR, IC50.
Where [4] appears, read: CHO-K1/cannabinoid CB1 protein 2 μg/well, [3H]-SR141716A 0.5 nM, Ki from IC50 by Cheng-Prusoff, average of double determination, read-out: hCB1R, binding Ki.

T2 sequence (P21554 whole entry): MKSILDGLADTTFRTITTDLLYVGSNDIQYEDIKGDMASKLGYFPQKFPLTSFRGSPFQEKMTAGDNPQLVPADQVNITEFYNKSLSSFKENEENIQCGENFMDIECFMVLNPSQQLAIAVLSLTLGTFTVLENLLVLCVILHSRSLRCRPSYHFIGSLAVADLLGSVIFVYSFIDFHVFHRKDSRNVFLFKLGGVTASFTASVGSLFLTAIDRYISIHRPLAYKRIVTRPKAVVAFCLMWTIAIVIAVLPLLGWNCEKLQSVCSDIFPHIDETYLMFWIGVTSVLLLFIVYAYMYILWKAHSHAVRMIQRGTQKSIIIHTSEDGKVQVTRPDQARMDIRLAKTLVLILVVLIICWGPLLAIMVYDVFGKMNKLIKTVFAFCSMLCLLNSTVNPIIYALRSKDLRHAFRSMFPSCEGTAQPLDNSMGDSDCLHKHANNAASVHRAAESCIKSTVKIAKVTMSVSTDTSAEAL
T1 sequence (P34972 whole entry): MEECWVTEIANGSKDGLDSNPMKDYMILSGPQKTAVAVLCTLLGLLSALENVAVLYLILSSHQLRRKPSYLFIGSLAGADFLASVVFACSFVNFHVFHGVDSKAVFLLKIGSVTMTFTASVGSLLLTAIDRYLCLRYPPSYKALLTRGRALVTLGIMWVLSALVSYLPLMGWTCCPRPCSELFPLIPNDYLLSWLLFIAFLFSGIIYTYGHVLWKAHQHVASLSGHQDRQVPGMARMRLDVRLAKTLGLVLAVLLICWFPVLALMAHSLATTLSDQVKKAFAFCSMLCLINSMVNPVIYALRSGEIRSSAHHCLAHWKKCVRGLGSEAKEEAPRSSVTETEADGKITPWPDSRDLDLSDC

Take `CC1(C)C(=O)N(c2ccc(C#N)c(C(F)(F)F)c2)C(=O)N1Cc1ccc(C(=O)c2ccccc2)cc1` [Example 132, 4-[3-(4-benzoylbenzyl)-4,4-dimethyl-2,5-dioxo-imidazolidin-1-yl]-2-trifluoromethylbenzonitrile]: the pIC50 is below 5.00 on hCB2R and 6.99 on hCB1R [2] (setting [3]). Moreover, the pKi on hCB1R [1] is 7.13.
In the case of `COC(=O)c1ccc(Cc2ccccc2CN2C(=O)N(c3ccc(C#N)c(C(F)(F)F)c3)C(=O)C2(C)C)cc1` [Example 143, methyl 4-{2-[3-(4-cyano-3-trifluoromethylphenyl)-5,5-dimethyl-2,4-dioxoimidazolidin-1-ylmethyl]benzyl}benzoate], the pKi at hCB1R [1] (setting [4]) is 7.89. In addition, on hCB1R [2], the pIC50 is 7.19.
In the case of `CC1(C)C(=O)N(c2ccc(C#N)c(S(F)(F)(F)(F)F)c2)C(=O)N1Cc1ccccc1Cc1ccccc1` [Example 102, 4-[3-(2-Benzylbenzyl)-4,4-dimethyl-2,5-dioxo-imidazolidin-1-yl]-2-pentafluorosulfanyl-benzonitrile], on hCB1R [1] (setting [4]), the pKi was 7.72. Further, the pIC50 on hCB1R [2] is 7.35.
On to `CC(C)(C)c1cc(N2C(=O)N(Cc3ccccc3Cc3ccccc3)C(C)(C)C2=O)ccc1C#N` [Example 118, 4-[3-(2-Benzylbenzyl)-4,4-dimethyl-2,5-dioxo-imidazolidin-1-yl]-2-tert-butylbenzonitrile], for which the pIC50 on hCB2R is below 5.00; at hCB1R [2] (setting [3]), 6.94. On hCB1R [1], this compound showed a pKi of 8.30.
For `N#Cc1ccc(N2C(=O)N(Cc3ccccc3Cc3ccccc3)C3(CCC3)C2=O)cc1C(F)(F)F` [Example 107, 4-[5-(2-Benzylbenzyl)-6,8-dioxo-5,7-diazaspiro[3.4]-oct-7-yl]-2-trifluoro-methylbenzonitrile], the figures for the pIC50 on hCB2R and at hCB1R [2] were below 5.00 and 7.37, respectively. This compound also showed a pKi at hCB1R [1] of 7.92.
In the case of `CC1(C)C(=O)N(c2ccnc(C(F)(F)F)c2)C(=O)N1Cc1ccccc1Cc1ccccc1` [Example 119, 1-(2-Benzylbenzyl)-5,5-dimethyl-3-(2-trifluoromethylpyridin-4-yl)imidazolidine-2,4-dione; hydrochloride], on hCB1R [1] (setting [4]), the pKi was 7.64. On hCB1R [2], the pIC50 is 7.01.
Turning to `CC1(C)C(=O)N(c2ccc(C#N)c(C(F)(F)F)c2)C(=O)N1Cc1ccc(F)cc1C(=O)c1ccc(C#N)cc1` [Example 150, 4-{3-[2-(4-Cyano-benzoyl)-4-fluorobenzyl]-4,4-dimethyl-2,5-dioxo-imidazolidin-1-yl}-2-tri-fluoromethylbenzonitrile], the pKi at hCB1R [1] (setting [4]) is 7.74. The pIC50 on hCB1R [2] is 7.96.
Consider `CSc1cccc(N2C(=O)N(Cc3ccccc3Cc3ccccc3)C(C)(C)C2=O)c1` [Example 4], for which the pKi on hCB1R [1] (setting [4]) was 6.66.
Still for that read-out and setting: in the case of `COC(=O)c1ccc(Cc2ccccc2CN2C(=O)N(c3ccc(F)c(C(F)(F)F)c3)C(=O)C2(C)C)cc1` [Example 144, methyl 4-{2-[3-(4-fluoro-3-trifluoromethylphenyl)-5,5-dimethyl-2,4-dioxoimidazolidin-1-ylmethyl]benzyl}benzoate] it was 7.43.
On to `CC1(C)C(=O)N(c2ccc(C#N)c(C(F)(F)F)c2)C(=O)N1Cc1ccccc1Cc1ccccc1` [Example 88, 4-[3-(2-benzylbenzyl)-4,4-dimethyl-2,5-dioxoimidazolidin-1-yl]-2-trifluoromethylbenzonitrile], for which the pIC50 on hCB2R is below 4.52; at hCB1R [2] it was 7.89. The same compound had a pKi at hCB1R [1] of 8.70.
Regarding `CC1(C)C(=O)N(c2ccc(F)c(C(F)(F)F)c2)C(=O)N1Cc1ccccc1Cc1ccccc1` [Example 79], the figures for the pIC50 on hCB2R and on hCB1R [2] (setting [3]) were below 5.00 and 6.99, respectively. The compound further showed a pKi at hCB1R [1] of 7.36.
For `N#Cc1ccc(N2C(=O)N(Cc3ccccc3Cc3ccccc3)C3(CCCC3)C2=O)cc1C(F)(F)F` [Example 106, 4-[1-(2-Benzylbenzyl)-2,4-dioxo-1,3-diazaspiro[4.4]-non-3-yl]-2-trifluoro-methylbenzonitrile], the pIC50 was below 5.00 on hCB2R and 7.12 at hCB1R [2]. This compound gave a pKi at hCB1R [1] of 7.96.
